Test results: ChEMBL document CHEMBL2074087, “Inhibition of the P-glycoprotein- and multidrug resistance protein-mediated efflux of anthracyclines and calceinacetoxymethyl ester by PAK-104P” (Eur J Pharmacol, 2000)

Target: ATP-dependent translocase ABCB1 (Homo sapiens, UniProt P08183)
Assay: TP_TRANSPORTER: inhibition of Hydroxydoxorubicin efflux in K562/Adr cells
Assay type: functional, cell-based

Chain of ATP-dependent translocase ABCB1 (P08183 whole entry): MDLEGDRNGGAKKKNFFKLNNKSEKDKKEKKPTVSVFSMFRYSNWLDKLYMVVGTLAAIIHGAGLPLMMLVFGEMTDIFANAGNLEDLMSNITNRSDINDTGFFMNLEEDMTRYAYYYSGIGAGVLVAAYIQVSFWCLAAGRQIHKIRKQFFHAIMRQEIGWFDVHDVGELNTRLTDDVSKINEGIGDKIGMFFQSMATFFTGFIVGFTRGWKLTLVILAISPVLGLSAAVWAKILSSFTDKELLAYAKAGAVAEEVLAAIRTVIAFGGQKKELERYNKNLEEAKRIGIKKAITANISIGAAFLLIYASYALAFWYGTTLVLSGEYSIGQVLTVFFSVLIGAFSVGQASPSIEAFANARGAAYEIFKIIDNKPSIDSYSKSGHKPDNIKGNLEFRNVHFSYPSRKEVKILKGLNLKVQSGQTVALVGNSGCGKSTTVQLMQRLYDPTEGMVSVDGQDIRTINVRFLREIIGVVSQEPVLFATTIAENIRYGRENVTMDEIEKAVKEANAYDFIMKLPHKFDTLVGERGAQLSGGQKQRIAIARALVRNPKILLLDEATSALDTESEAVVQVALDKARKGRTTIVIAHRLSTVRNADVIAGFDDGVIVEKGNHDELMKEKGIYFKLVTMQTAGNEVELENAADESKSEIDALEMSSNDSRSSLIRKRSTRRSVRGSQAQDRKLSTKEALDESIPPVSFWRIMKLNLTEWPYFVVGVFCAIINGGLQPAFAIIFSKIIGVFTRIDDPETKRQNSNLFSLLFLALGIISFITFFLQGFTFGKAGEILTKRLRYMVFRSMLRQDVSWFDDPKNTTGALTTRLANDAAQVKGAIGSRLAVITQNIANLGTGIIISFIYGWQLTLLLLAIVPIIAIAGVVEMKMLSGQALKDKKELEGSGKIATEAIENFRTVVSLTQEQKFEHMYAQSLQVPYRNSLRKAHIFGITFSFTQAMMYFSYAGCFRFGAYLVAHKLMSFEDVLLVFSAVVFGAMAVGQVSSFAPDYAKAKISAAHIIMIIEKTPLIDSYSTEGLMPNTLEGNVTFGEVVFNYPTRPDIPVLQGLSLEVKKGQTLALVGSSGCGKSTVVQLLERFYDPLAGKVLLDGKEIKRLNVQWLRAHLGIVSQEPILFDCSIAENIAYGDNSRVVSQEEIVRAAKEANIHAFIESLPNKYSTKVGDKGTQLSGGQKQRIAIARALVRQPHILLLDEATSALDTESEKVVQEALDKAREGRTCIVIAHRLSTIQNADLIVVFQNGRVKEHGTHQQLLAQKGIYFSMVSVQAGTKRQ

- Ki: 0.21 µM
SMILES: Cc1nc(C)c(P2(=O)O[C@H](C)C[C@@H](C)O2)c(-c2cccc([N+](=O)[O-])c2)c1C(=O)OCCN1CCN(C(c2ccccc2)c2ccccc2)CC1 (stereo partly specified)
